How the values were obtained:
DLD1-WRN-KO cells = assay: Proliferation assay DLD1-WRN-KO (CellTiterGlo, off-target effects); format: cell-based; details: 96 hours, geometric mean of at least 2
Protocol: The WRN-knockdown insensitive colon carcinoma cell line DLD-1 (RRID: CVCL_0248) was obtained from the Korean Cell Line Bank (KCLB), and used to generate a derivative in which the endogenous WRN gene copies were knocked out by CRISPR-mediated editing using standard CRISPR methods. The resulting cell line, DLD1-WRN-KO, was used to assess potential off-target compound effects. […]
Three replicate plates were prepared for each compound treatment condition. In addition, one plate (termed “day 0”) was prepared to quantify the number of viable cells at the time of compound addition. Following overnight incubation at 37° C. in a humidified 5% CO2 atmosphere, eight 3-fold serial dilutions of a given compound stock (obtained at a concentration of 10 mM in DMSO and stored at 4° C.) were dispensed directly into each of the triplicate assay plates using a HP 300D non-contact Digital Dispenser (TECAN). The final concentration of DMSO was normalized to 0.1% in all wells. 96 hours after compound addition, cellular ATP levels as a surrogate for cell viability was assessed following addition of 50 microliters CellTiterGlo (Promega Cat #G7573) reagent and luminescence quantification on a MPLEX multi-mode plate-reader (TECAN) following a 10 minute incubation at room temperature. The number of viable cells in the “day 0” plate were quantified identically on the day of compound addition.
For data analysis, the assay background signal that was determined in wells containing medium, but no cells, was subtracted from all other data points prior to further calculations. The extent of growth inhibition and potential cell kill was assessed by comparing the ATP levels (measured using CellTiterGlo, Promega) in compound-treated cells with those present at the time of compound addition. […] 100%, 0% and −100% signify absence of growth inhibition, growth stasis, and complete cell kill, respectively. Compound concentrations leading to half-maximal growth inhibition (GI50) and residual cell viability at the highest tested compound concentration (Data (cmax), expressed in percent) were routinely calculated. Data analysis can also be carried out using commercially available software designed to derive IC50 values using 4-parameter fits (e.g. GraphPad Prism, XL fit). The reported GI50 values are the geometrical means of at least 2 independent replicates.

[1] = target: T1, WRN helicase (aa N517-P1238) (Homo sapiens, UniProt Q14191); assay: WRN ATPase assay (DNA dependent ATP hydrolysis, ADP-Glo); format: biochemical; details: 3 hours pre-incubation, 300 micromolar ATP, FLAP26 DNA; geometric mean of at least 2
T1 construct: The core helicase motif of the WRN protein (aa N517-P1238) was produced for this assay; His (N); ZZ (N); 3C protease cleavage site (N); made in house; host or cells: Sf21 insect cells (baculovirus; virus and BIICs made in SF9)
T1 sequence (Q14191 517-1238): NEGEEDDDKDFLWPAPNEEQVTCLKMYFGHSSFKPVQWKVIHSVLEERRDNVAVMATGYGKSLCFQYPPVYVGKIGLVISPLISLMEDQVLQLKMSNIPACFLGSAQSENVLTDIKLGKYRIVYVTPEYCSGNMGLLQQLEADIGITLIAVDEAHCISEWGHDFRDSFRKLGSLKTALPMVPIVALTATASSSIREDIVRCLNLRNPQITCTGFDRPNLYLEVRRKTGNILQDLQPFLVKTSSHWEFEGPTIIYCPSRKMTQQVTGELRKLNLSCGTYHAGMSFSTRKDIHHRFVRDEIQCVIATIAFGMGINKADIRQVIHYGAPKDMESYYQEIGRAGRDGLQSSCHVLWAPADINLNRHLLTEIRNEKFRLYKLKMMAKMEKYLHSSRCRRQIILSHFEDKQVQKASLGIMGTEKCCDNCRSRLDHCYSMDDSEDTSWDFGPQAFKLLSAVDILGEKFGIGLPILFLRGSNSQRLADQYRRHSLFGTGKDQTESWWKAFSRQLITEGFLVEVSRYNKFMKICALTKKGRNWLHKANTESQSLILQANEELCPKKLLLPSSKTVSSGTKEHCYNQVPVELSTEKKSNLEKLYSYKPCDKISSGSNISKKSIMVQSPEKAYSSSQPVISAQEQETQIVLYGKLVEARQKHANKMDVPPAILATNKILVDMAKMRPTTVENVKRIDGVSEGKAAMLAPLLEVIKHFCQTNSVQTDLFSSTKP
Source text: An ATPase assay was set up to measure the DNA dependent ATP hydrolysis activity of WRN helicase. This assay was used also to assess the inhibition properties of compounds of the invention on DNA dependent WRN ATPase activity.
The core helicase motif of the WRN protein (aa N517-P1238) was produced for this assay (protein production as described above). […] The ADP-Glo assay kit (Promega, Madison, WI) allowing the quantification of ADP produced in ATP hydrolysis reactions was used for setting up this assay.
Time course experiments were first performed in order to determine the best enzymatic assay conditions (including buffer conditions, reaction time and concentrations of protein, ATP and DNA substrates). A typical reaction consists of 10 nM WRN protein, 0.2 nM FLAP26, and 300 micromolar ATP in the following assay buffer: 30 mM Tris pH7.5, 2 mM MgCl2, 0.02% BSA, 50 mM NaCl, 0.1% pluronic F127 prepared in DNAse free water.
To evaluate the inhibition properties of compounds of the invention, serial dilutions were prepared in DMSO (10 half log dilutions from a 10 mM DMSO solution). […] The reaction was stopped with the addition of 5 microliters of the first ADP-Glo reagent and incubated for one hour to remove the excess amount of ATP. Afterwards, 10 microliters of ATP detection reagent was added and incubated for an additional hour before reading. Luminescence output was recorded using Tecan 1000 reader, with 5 minutes delay before reading. Each concentration of compound was tested in duplicates in the assay plate.
Following normalization of activity values for the wells to % inhibition (% inhibition=[(high control-sample)/(high control-low control)]×100), IC50 fitting was carried out from the duplicate determinations present on each plate according to [4]. Data analysis can also be carried out using commercially available software designed to derive IC50 values using 4-parameter fits (e.g. GraphPad Prism, XL fit). The reported IC50 values are the geometrical means of at least 2 independent replicates.

SMILES | GI50 (DLD1-WRN-KO cells) | IC50 [1]
CCOC(=O)C#Cc1nc2n(CC(=O)Nc3ccc(C(F)(F)F)cc3)c(C)c(N3CCN(C(C)=O)CC3)c(=O)n2n1 [Example 116, ethyl 3-(6-(4-acetylpiperazin-1-yl)-5-methyl-7-oxo-4-(2-oxo-2-((4-(trifluoromethyl)phenyl)amino)ethyl)-4,7-dihydro-[1,2,4]triazolo[1,5-a]pyrimidin-2-yl)propiolate] | 5000 nM | 500 nM
CC(=O)N1CCN(c2c(C)n(CC(=O)Nc3ccc(Cl)c(Cl)c3)c3nc(C4=CCN(C(=O)OC5CC/C=C/CCC5)CC4)nn3c2=O)CC1 (stereo not drawn) [Example 93, (E)-cyclooct-4-en-1-yl 4-(6-(4-acetylpiperazin-1-yl)-4-(2-((3,4-dichlorophenyl)amino)-2-oxoethyl)-5-methyl-7-oxo-4,7-dihydro-[1,2,4]triazolo[1,5-a]pyrimidin-2-yl)-3,6-dihydropyridine-1(2H)-carboxylate] | 5000 nM | 700 nM
Cc1c(N2CCN(C(=O)c3n[nH]c4ccccc34)CC2)c(=O)n2nc(C3=CCOCC3)nc2n1CC(=O)Nc1ccc(C(F)(F)F)cc1 [Example 154, 2-(6-(4-(1H-indazole-3-carbonyl)piperazin-1-yl)-2-(3,6-dihydro-2H-pyran-4-yl)-5-methyl-7-oxo-[1,2,4]triazolo[1,5-a]pyrimidin-4(7H)-yl)-N-(4-(trifluoromethyl)phenyl)acetamide] | 8000 nM | 100 nM
CC(=O)N1CCN(c2c(C)n(CC(=O)Nc3ccc(Cl)c(C(F)(F)F)c3)c3nc(C4=CCN(C(=O)OC(C)(C)C)CC4)nn3c2=O)CC1 [Example 74, tert-butyl 4-(6-(4-acetylpiperazin-1-yl)-4-(2-((4-chloro-3-(trifluoromethyl)phenyl)amino)-2-oxoethyl)-5-methyl-7-oxo-4,7-dihydro-[1,2,4]triazolo[1,5-a]pyrimidin-2-yl)-5,6-dihydropyridine-1(2H)-carboxylate] | 600 nM | 200 nM
CC(=O)N1CCC(c2c(C)n(CC(=O)Nc3ccc(C(F)(F)F)cc3)c3nc(-c4ccccc4)nn3c2=O)CC1 [Example 143, 2-(6-(1-acetylpiperidin-4-yl)-5-methyl-7-oxo-2-phenyl-[1,2,4]triazolo[1,5-a]pyrimidin-4(7H)-yl)-N-(4-(trifluoromethyl)phenyl) acetamide] | > 10000 nM | 
CC(=O)N1CCN(c2nc3n(CC(=O)Nc4ccc(Cl)cc4)c(C)c(N4CCN(C(=O)c5cnon5)CC4)c(=O)n3n2)CC1 [Example 9, 2-(6-(4-(1,2,5-oxadiazole-3-carbonyl)piperazin-1-yl)-2-(4-acetylpiperazin-1-yl)-5-methyl-7-oxo-[1,2,4]triazolo[1,5-a]pyrimidin-4(7H)-yl)-N-(4-chlorophenyl)acetamide] | > 10000 nM | 80 nM
CC(=O)N1CCN(c2nc3n(CC(=O)Nc4ccc(Cl)cc4)c(C)c(N4CCN(C(=O)c5[nH]c(=O)[nH]c(=O)c5N)CC4)c(=O)n3n2)CC1 [Example 10, 2-(2-(4-acetylpiperazin-1-yl)-6-(4-(5-amino-2,6-dioxo-1,2,3,6-tetrahydropyrimidine-4-carbonyl)piperazin-1-yl)-5-methyl-7-oxo-[1,2,4]triazolo[1,5-a]pyrimidin-4(7H)-yl)-N-(4-chlorophenyl)acetamide] | > 10000 nM | 90 nM
COc1cc(F)cc(C(=O)N2CCN(c3c(C)n(CC(=O)Nc4ccc(C(F)(F)F)cc4)c4nc(C5=CCOCC5)nn4c3=O)CC2)c1N [Example 153, 2-(6-(4-(2-amino-5-fluoro-3-methoxybenzoyl)piperazin-1-yl)-2-(3,6-dihydro-2H-pyran-4-yl)-5-methyl-7-oxo-[1,2,4]triazolo[1,5-a]pyrimidin-4(7H)-yl)-N-(4-(trifluoromethyl)phenyl)acetamide] | 5000 nM | 100 nM

From patent US20260250289A1, “BICYCLIC HETEROCYCLES AND THEIR USE AS WRN INHIBITORS” (Novartis AG, priority 2022, published 2026)
